By Kd is commonly meant a measure of binding affinity in units of concentration. As usually defined, the EC50 is the concentration giving half of the maximal effect.

Like-named read-outs stand apart in the source and are kept apart here.

From PMC12203428, “Discovery of Clonixeril as a Sub-Femtomolar Modulator of the Human STING Receptor” (ACS Central Science, 2025) come the findings set out here.

Assay [1] deals with hSTING phosphorylation (p-hSTING) in HEK293 cells. Kind of assay: HEK293 pSTING Western blot with 2′,3′-cGAMP. It counts as cell-based, human. Here is the method: Since phosphorylation of Ser366 of hSTING is a necessary step to initiate recruitment, subsequent docking, and phosphorylation of IRF3, we investigated whether CXL would affect hSTING phosphorylation levels in cellulo. Thus, HEK293 cells were treated with varying concentrations of CXL (1fM-1nM) for one hour prior to 2 μM 2′,3′-cGAMP treatment for 90 min (Figure A) or 2 h (Figure C). An optimized dose of 2 μM 2′,3′-cGAMP was based on a dose–response study done for this experiment. A control group was treated with vehicle for 1 h followed by 2 μM 2′,3′-cGAMP for 1 or 2 h (Figure C) Total protein lysates were collected and analyzed by Western blotting using antibodies against p-hSTING, hSTING, and β-actin.
HEK293 cells were seeded at 700,000 cells per 60 mm plate confluency and treated 36 h later. […] Vehicle control group was treated with Escort IV reagent and DMSO for 1 h prior to 2 μM 2′,3′-cGAMP (InvivoGen) for 1 h and 30 min using Escort IV transfection reagent. DMSO concentration was kept constant across all treatment groups. Total cell lysates were collected and analyzed by Western blotting using antibodies against p-STING, STING, and β-actin. […] Data points were analyzed with a one-way ANOVA test using PRISM9 statistical analysis software (GraphPad). A level of p < 0.05 was considered statistically significant.
Background: Immunoblotting shows a protein as a band on a membrane.

Assay [2] relates to p-hSTING puncta in HEK293 cells. Kind of assay: HEK293 immunofluorescence of p-hSTING. It counts as cell-based, human. Here is the method: STING undergoes condensed cis-oligomerization as part of its signal transduction pathway and punctate structure formation of p-hSTING in the perinuclear region is indicative of hSTING oligomerization. We had speculated that CXL might affect hSTING oligomerization. […] HEK293 cells were treated with either 10 aM or 1 pM CXL for 1 h followed by 2 μM 2′,3′-cGAMP for 90 min. Cells treated with vehicle control for 1 h and then 2 μM of 2′,3′-cGAMP for 90 min were used as a positive control. At a 1 pM concentration of CXL, both p-hSTING and punctate structure formation were diminished.
HEK293 cells were seeded into four-chambered slides (5,000 cells/well.) 36 h later, sample 1 was first treated with vehicle control for 1 h and then transfected with 2 μM 2′,3′-cGAMP (InvivoGen) using Escort IV transfection reagent (Sigma Aldrich) for 1 h and 30 min. Samples 2 and 3 were first transfected with 10 aM and 1 pM CXL, respectively, for 1 h, followed by 2 μM 2′,3′-cGAMP for 1 h and 30 min. […] DMSO concentration was kept constant across all treatment groups. Cells were fixed with 4% paraformaldehyde for 15 min and immunostained with p-STING antibody at 4 °C overnight with light agitation. The slides were incubated with Alexa 594 rabbit secondary antibody for 1 h at RT. Subsequently, the slides were stained with Phalloidin conjugated to FITC (488) for 30 min at RT, mounted with solution containing 4′,6′-diamidino-2-phenylindole (DAPI) and imaged on a Fluorescent Microscope.

Assay [3] has as its target T1, His-hSTING CTD (Homo sapiens, UniProt Q86WV6, H232R).
T1 construct: purchased Invivogen (USA) or Cayman Chemicals (USA)
The assay can be described thus: Surface plasmon resonance. As to conditions: without 2′,3′-cGAMP competition; read-out: KD (SPR). It counts as binding. Here is the method: SPR was employed for binding measurements using the His-tagged hSTING^WT CDN domain. A GE Healthcare Biacore T200 was equipped with a Ni-NTA chip. […] The sensorgrams were analyzed using Biacore T200 Software 3.0 and steady state was measured at 4 s before injection stop, exported into Graphpad, and fit versus concentration using a one site specific binding model to calculate the apparent equilibrium dissociation constant (K D). Where appropriate, kinetics were measured using a 1:1 Langmuir binding model with R max set to local to obtain the association rate (K on), dissociation (K off)
A general note: Surface plasmon resonance follows binding to a sensor surface in real time, without labels.

Assay [4] concerns the target T2, hSTING CTD (STING R232 variant) (Homo sapiens, UniProt Q86WV6, H232R).
T2 construct: 6X-His tagged hSTING^WT, R232 variant, CTD protein was purchased; purchased Invivogen (USA) or Cayman Chemicals (USA)
The assay can be described thus: Microscale thermophoresis. It counts as binding. To be noted: Log inhibitor versus response fit. Here is the method: Small molecule affinities at subpicomolar concentrations are typically difficult to determine by MST due to the inability of the detector to measure differential movement of proteins when largely disproportionate ratios of protein to ligand are involved. […] Generally, an IC50 correlates well with a K D when a small molecule competes for binding with a natural substrate for a target protein.
The resulting mixture was centrifuged at 12,000 x RPM 10 min prior to use. […] The samples were run again at 30- and 45 min. Detection of the protein was performed using the blue detection channel with excitation power set to 100% and MST set to high allowing 3 s prior to MST on to check for initial fluorescence differences, 35 s for thermophoresis, and 3 s for regeneration after MST off. Analysis was performed using M.O. Affinity Analysis Software with difference between initial fluorescence measured in the first 5 s as compared with thermophoresis at 30 s at 16 different analyte concentrations ranging from 100 μM to 100 zM and exported into Graphpad Prism v.8 using a Log inhibitor versus response for parameter fit.
In general terms: In MST a laser heats a spot of the sample, and binding alters the fluorescence response.

For assay [5], the system named is p-IRF3 in HEK293S cells (hSTING pathway). Kind of assay: Phospho-IRF3 Western blot in HEK293S cells with diABZI3. It counts as cell-based, human. As to conditions: 100 fM compound, 100 nM diABZI3, preliminary.
Experimental: HEK293T cells transfected with hSTINGWT cells were seeded in a 6-well plate in DMEM
(supplemented with 10% heat-inactivated fetal bovine serum, 1X Corning Penicillin-Streptomycin
solution and 0.01mg/mL Blasticidin). Upon reaching ~80% confluence, cells were pretreated with
varying concentrations of CXL in FBS-free DMEM for 2 hours. This was followed by treatment
with diABZI3 (100nM) for 1 hour. The cells were scraped, harvested by centrifugation at 1000 x g
for 3 mins. The resulting pellet is resuspended in 1X PBS with 1X Halt protease & phosphatase
inhibitor and 1% NP-40. Cell lysis was performed by probe sonication. The cell lysate is further
denatured in 1X SDS loading buffer by boiling for 10 mins and separated by SDS-PAGE (4-20%
gel). The separated proteins were electrically transferred to a PVDF membranes separately,
which was probed with primary (α-pIRF3, α-IRF3 & α-STING) and secondary (goat anti-rabbit IR
dye 680 & goat anti-mouse IR dye 800CW) antibodies. The blots were visualized using a LICOR
Image Analyzer. All the experiments were performed at least in duplicate.
For assay [6], the system named is hSTING CTD. Kind of assay: Differential scanning fluorimetry (thermal shift). As to conditions: 200 μM. It is filed as binding, human.
Text: Differential Scanning Fluorimetry – Thermal Shift Experiment
screening process for their potential to stabilize the active form of the STING molecule by binding to it. A TSA measures a protein's melting temperature (Tm), at which the protein is 50% denatured. The assay quantifies protein denaturation by measuring the increase in fluorescence of a dye that binds to hydrophobic residues exposed by unfolding of the protein.
Differential Scanning Fluorimetry (Thermal Shift) for Binders of STING.
Compounds selected (57) from computational virtual screening for analysis at 200 μM in the thermal shift assay are
shown here as green dots with blue diamond indicating the temperature range of denaturation. The red box indicates
Assay [7] relates to IFN-β expression in HEK293 cells. The assay can be described thus: HEK293 real-time qPCR for IFN-β.
Experimental: IFN-β expression levels were measured using real-time qPCR.
For assay [8], the target named is SUMO-hSTING CTD (Homo sapiens, UniProt Q86WV6, H232R). The assay can be described thus: Dynamic light scattering of STING oligomerization.
Chain of SUMO-hSTING CTD (Q86WV6 155-343 H232R): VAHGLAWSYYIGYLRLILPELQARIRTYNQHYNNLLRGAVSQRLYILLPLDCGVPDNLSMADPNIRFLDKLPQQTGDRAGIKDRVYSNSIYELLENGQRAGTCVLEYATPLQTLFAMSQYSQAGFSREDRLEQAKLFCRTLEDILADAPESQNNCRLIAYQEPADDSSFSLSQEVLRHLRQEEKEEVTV
Experimental: (B) DLS was performed for 2 h (n = 960 measurements) with 50 nM STING exposed to analytes. […] Blue blocks indicate size counts as a percentage to overall mass over selected mass ranges. […] Measurements were made using a Malvern Zetasizer Nano ZS set to 40 measurements at 1 s/measurement and 24 runs.
In assay [9] the test system is hSTING WT pathway (THP1 Dual KI-hSTING-R232 cells, IRF3 luciferase reporter). Kind of assay: THP-1 IRF3 luciferase reporter assay, clonixeril as agonist.
Experimental: 2 Luciferase assay utilizing monocytic leukemia (THP-1) cells. Cells (Invivogen THP1 Dual KI-hSTING-R232; wild type) were analyzed for activation of the hSTING WT pathway via an IRF3 luciferase reporter. Luminescence is reported in relative luminescence units (RLU). Error bars are SEM A. Dose–response of THP-1 cells treated with various concentrations of clonixeril (CXL); N = 6.
A 10 mM stock solution of CXL in 100% DMSO was diluted with ultrapure Milli Q water to make 3, 5, 10, 15, 20, 30, 40, 50 μM samples. The vehicle control contained blank cell medium treated with 0.1% DMSO. 20 μL sample/well of CXL or dilute DMSO (vehicle control) was added to a white, 300 μL, sterile 96 well plate. […] All samples contained a final DMSO concentration of 0.1%. […] The expression of Lucia luciferase was quantified by measuring the luminescence and evaluated in triplicate. Data are average luminescence changes shown as relative luminescence after subtraction of the background luminescence of vehicle-treated cells. A Glowmax luminometer with an injector was used for the measurement of luminescence in the luciferase assay. After the 10h incubation period, 20 μL/well of cell culture supernatant was transferred to a fresh well plate. A single injector added 50 μL of detection reagent per well, and immediately measured luminescence using a 4s incubation time integrated over 1 s.

T2 sequence (Q86WV6 153-340 H232R): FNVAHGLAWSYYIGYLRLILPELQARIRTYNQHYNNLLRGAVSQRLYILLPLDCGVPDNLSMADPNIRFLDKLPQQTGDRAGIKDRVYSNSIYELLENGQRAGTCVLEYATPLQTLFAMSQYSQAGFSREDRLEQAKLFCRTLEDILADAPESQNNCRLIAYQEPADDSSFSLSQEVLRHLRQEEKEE
T1 sequence (Q86WV6 153-340 H232R): as above

Regarding `Cc1c(Cl)cccc1Nc1ncccc1C(=O)OCC(O)CO` (stereo not drawn) [CXL, clonixeril], in [1] (CXL 1 fM-1 nM 1 h, then 2 μM 2′,3′-cGAMP), the “Effect on hSTING phosphorylation, CXL prior to 2′,3′-cGAMP” value was “downregulated hSTING phosphorylation close to near basal cellular levels”. In addition, the “Effect on hSTING phosphorylation, 2′,3′-cGAMP prior to CXL” value in assay [1] (same concentration range) was “inhibitory activity was not observed”. Further, the “p-hSTING and punctate structure formation” value in assay [2] (1 pM CXL 1 h, then 2 μM 2′,3′-cGAMP 90 min) is on record as “diminished”. Further, in assay [2] (10 aM CXL), the “2′,3′-cGAMP induced p-hSTING puncta formation in the perinuclear region” value was “may affect” and the “Levels of hSTING phosphorylation” value is “qualitatively unaffected”. For the same compound, in assay [3], the equilibrium dissociation constant (Kd) is 0.43 ± 0.14 µM. In addition, the “Hillslope (MST fit)” value in assay [4] is reported as −1.669. The “Effect on p-IRF3” value in [5] is “potent antagonistic behavior”. The Thermal shift entry in assay [6] is on record as “negative thermal shift”. Moreover, in assay [7] (1 fM, reviewer's reading of Figure 3D), the “Inhibition of IFN-b production” value is listed as “about 75%”. The “Diminution of 2′,3′-cGAMP-induced expression of IFN-β” value in assay [7] (all CXL treatment groups 1 fM-1 nM, 1 h before 4 μM 2′,3′-cGAMP) was “more than 50%”. For the same compound, in assay [8] (50 nM STING, 50 nM 2′,3′-cGAMP), the “Lowest concentration at which effect on oligomerization is observed” value turned out to be 100 aM and the “Reduction in 2′,3′-cGAMP driven SUMO-hSTING CTD oligomerization” value is “alters the ability of SUMO-hSTING CTD to oligomerize”. Besides, the “SUMO-hSTING CTD oligomerization without 2′,3′-cGAMP present” value in assay [8] (50 nM STING, analyte alone) is “moderate amount of oligomerization”. In addition, in assay [8] (100 aM, 50 nM STING CTD, reviewer's reading), the “Size of protein aggregates” value was “about 75 nm”. In addition, in assay [9] (Homo sapiens, THP1-Dual KI-hSTING-R232, read-out: EC50 (agonist activity), CXL alone, THP-1 cells, Figure 2A), the concentration for a half-maximal effect (EC50) is roughly 19 µM. Further, the “Agonist activity in luciferase reporter assay” value in assay [9] (compound alone) is “weak agonist activity”. Further, the concentration giving a half-maximal response (EC50) in assay [9] (read-out: EC50 (agonist activity), CXL alone, THP-1 cells, Figure 2A) stood at 20 µM.
